Measured values reported in ChEMBL document CHEMBL1148049, “Antimitotic and cytotoxic flavonols from Zieridium pseudobtusifolium and Acronychia porteri” (J Nat Prod, 1994).
≈ marks a conversion by molar mass, not a printed value.

test system: not listed separately; experiment: Inhibition of tubulin assembly

Row | Structure (SMILES) | IC50 [µM]
1 | COc1ccc(-c2oc3c(OC)c(OC)c(OC)c(O)c3c(=O)c2OC)cc1O | 12
2 | COc1ccc(-c2oc3cc(O)c(OC)c(O)c3c(=O)c2OC)cc1O [CENTAUREIDIN] | 3
3 | CC[C@]1(O)C[C@@H]2CN(CCc3c([nH]c4ccccc34)[C@@](C(=O)OC)(c3cc4c(cc3OC)N(C)[C@H]3[C@@](O)(C(=O)OC)[C@H](OC(C)=O)[C@]5(CC)C=CCN6CC[C@]43[C@@H]65)C2)C1 [VINBLASTINE] | 4

test system: KB; experiment: Cytotoxicity against human KB cells; assay type: functional, cell-based

Row | Structure (SMILES) | IC50 [µg/mL]
4 | COc1ccc(-c2oc3c(OC)c(OC)c(OC)c(O)c3c(=O)c2OC)cc1O | 0.04 (≈ 0.0989 µM)
5 | COc1ccc(-c2oc3c(OC)c(OC)c(OC)c(O)c3c(=O)c2OC)cc1OC | 6 (≈ 14.3 µM)
6 | COc1cc(-c2oc3c(OC)c(OC)c(OC)c(O)c3c(=O)c2O)cc(O)c1OC | 2 (≈ 4.76 µM)
7 | COc1ccc(-c2oc3c(OC)c(OC)c(OC)c(O)c3c(=O)c2O)cc1O | 6 (≈ 15.4 µM)
8 | COc1ccc(-c2oc3c(OC)c(OC)c(OC)c(O)c3c(=O)c2O)cc1OC | 0.1 (≈ 0.247 µM)
9 | COc1c(OC)c(O)c2c(=O)c(OC)c(-c3ccc(O)c(O)c3)oc2c1OC | 0.44 (≈ 1.13 µM)
10 | COc1cc(-c2oc3c(OC)c(OC)c(OC)c(O)c3c(=O)c2OC)ccc1O | 0.2 (≈ 0.495 µM)
11 | COc1ccc(-c2oc3cc(O)c(OC)c(O)c3c(=O)c2OC)cc1O [CENTAUREIDIN] | 0.27 (≈ 0.749 µM)
12 | COc1cc(-c2oc3c(OC)c(OC)c(OC)c(O)c3c(=O)c2OC)cc(O)c1OC [DIGICITRIN] | 2 (≈ 4.6 µM)
